The text below walks through data of patent US7880007B2, “Bicyclic substituted phenyl piperidine modulators of muscarinic receptors” (Vertex Pharmaceuticals Incorporated, priority 2004, dated 2011).

Holding throughout (format): cell-based
One test concerns the target T1, M4 muscarinic receptor (Homo sapiens, UniProt P08173).
T1 construct: expressed in transfected cells; host or cells: CHO (M4-CHO)
T1 sequence (P08173 1-479): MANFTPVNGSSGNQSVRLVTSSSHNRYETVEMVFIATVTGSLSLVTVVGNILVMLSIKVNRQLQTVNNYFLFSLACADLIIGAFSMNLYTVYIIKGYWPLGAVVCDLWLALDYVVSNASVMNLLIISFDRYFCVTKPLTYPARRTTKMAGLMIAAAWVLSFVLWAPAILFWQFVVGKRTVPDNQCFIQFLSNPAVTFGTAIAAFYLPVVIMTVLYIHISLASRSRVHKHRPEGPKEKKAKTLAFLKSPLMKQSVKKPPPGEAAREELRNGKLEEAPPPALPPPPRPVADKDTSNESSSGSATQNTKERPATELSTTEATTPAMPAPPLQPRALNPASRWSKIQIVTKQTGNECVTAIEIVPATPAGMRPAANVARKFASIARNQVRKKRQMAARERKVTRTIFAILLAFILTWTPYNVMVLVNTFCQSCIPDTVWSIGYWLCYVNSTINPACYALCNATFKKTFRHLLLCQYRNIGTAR
Briefly: Functional mobilization of intracellular calcium (FLIPR), M4-CHO cells. Conditions: for Emax: 100% efficacy = maximum response obtained with the Carbachol control; for M4 Activity: M4-CHO cells, calcium mobilization (FLIPR). The procedure:
(§1) Functional Mobilization of Intracellular Calcium to Determine Muscarinic Receptor Activity:
(§2) CHO cells expressing muscarinic receptors (M1 to M5) are grown as monolayers in tissue culture flasks at 37° C. in a humidified atmosphere containing 5% CO2 and passaged every 3-5 days. The growth media is Dulbecco's modified eagles medium (DMEM, Gibco Cat #12430-054), containing 25 mM Hepes and supplemented with Fetal Bovine Serum (Hyclone, cat #SH30071.03), 0.1 mM of MEM non-essential amino acids (GIBCO, Cat #11140-050), 1 mM MEM Sodium Pyruvate (GIBCO Cat #11360-070) and 100 units/ml of Penicillin G and 100 μg/ml of Streptomycin (GIBCO Cat #15140-122). The recombinant muscarinic receptor cell lines are grown under antibiotic pressure with media containing 25 μg/ml zeocin and 500 μg/ml G418 (M1-CHO), 4 μg/ml puromycin, 50 μg/ml zeocin and 2.5 μg/ml blasticidin (M2 and M4-CHO) or 50 μg/ml zeocin and 4 μg/ml puromycin (M3 and M5-CHO).
(§3) Cells are harvested at 80-90% confluence using Versene (GIBCO Cat #15040-066), collected by centrifugation and seeded 18-24 hrs prior to running the calcium assay at a density of 5,000-10,000 cells/well in […], clear-bottomed 384-well plates (BD Biocoat, poly-D-lysine, Cat #356663). The day of the experiment, the cells are washed with a plate washer (Bioteck Instruments, ELX 405) using bath 1 buffer (140-mM NaCl, 4.5-mM KCl, 2-mM CaCl2, 1-mM MgCl2, 10-mM Hepes-Na, 10-mM Glucose, pH 7.4, with NaOH) containing 1 mM Probenecid. Next, the calcium dye Fluo-3 (25 μl/well of Fluo-3 AM at 4 μM, Molecular Probes F-1241, in Bath 1 buffer containing 1 mM Probenecid) is added to the 25 μl of Bath 1 remaining in each well after the plate wash and the dye is loaded at 37° C. in the tissue culture incubator for 60-90 min. The fluorescent dye is removed using the plate washer with Bath 1 containing 1 mM Probenecid, leaving 25 μl/well of this solution after the wash. Alternatively, cells can be loaded with the calcium indicator from Molecular Devices (Calcium 3 Assay Reagents, Cat #R7181) adding 5 μl of a 5× solution dye in Bath 1 containing 1 mM Probenecid (10 ml per dye flask cat #R7182 to generate a solution 20×) to 20 μl of the same buffer. After loading for 60 min, the experiment can be run without having to remove the dye.
(§4) Compounds are prepared at a 2× fold concentration in a 96-well plate (round bottom, Costar Corning cat #3656), by reconstituting the pre-spotted compounds in bath 1 containing 1 mM probenecid. The final concentration DMSO is 0.5%, and the amount of DMSO is normalized across the assay plate. To determine an agonist action of the compounds on muscarinic receptors, the reconstituted compounds are added (25 μl compound/well) to the cell assay plate (containing 25 μl/well) using the multi-channel robotic system of the FLIPR 3 Instrument (Molecular Devices, Sunnyvale, Calif.). To determine a functional inhibitory action of the compounds on muscarinic receptors, the reconstituted compounds are added (25 μl compound/well) to the assay plate and pre-incubated for 15 min prior to adding 25 μl of Carbachol at 3× the EC80 for each muscarinic subtype. Alternatively, the compounds can be co-applied simultaneously with the agonist. In both assay modes, the fluorescence is recorded for 60 sec (excitation wavelength is […] and emission wavelength 540 nm) using the FLIPR 3 instrument.
(§5) The potency, efficacy and selectivity of the muscarinic compounds were evaluated by screening the compound activity across the whole family (M1 to M5 cells). Compounds were also screened for activity on other proteins such as other GPCRs and ion channels to determine selectivity on M4 receptors.
(§6) Examples of activities and efficacies of the muscarinic compounds of formulae (I, Ia, Ib, and II) on modulating M1, M2, M3 and M4 receptors are shown below in Table 3. […]
On the technique in general: A change in cytosolic calcium serves as a functional read-out for many receptors and channels.

A further test has as its target T2, M1 muscarinic receptor (Homo sapiens, UniProt P11229).
T2 construct: expressed in transfected cells; host or cells: CHO (M1-CHO)
T2 sequence (P11229 1-460): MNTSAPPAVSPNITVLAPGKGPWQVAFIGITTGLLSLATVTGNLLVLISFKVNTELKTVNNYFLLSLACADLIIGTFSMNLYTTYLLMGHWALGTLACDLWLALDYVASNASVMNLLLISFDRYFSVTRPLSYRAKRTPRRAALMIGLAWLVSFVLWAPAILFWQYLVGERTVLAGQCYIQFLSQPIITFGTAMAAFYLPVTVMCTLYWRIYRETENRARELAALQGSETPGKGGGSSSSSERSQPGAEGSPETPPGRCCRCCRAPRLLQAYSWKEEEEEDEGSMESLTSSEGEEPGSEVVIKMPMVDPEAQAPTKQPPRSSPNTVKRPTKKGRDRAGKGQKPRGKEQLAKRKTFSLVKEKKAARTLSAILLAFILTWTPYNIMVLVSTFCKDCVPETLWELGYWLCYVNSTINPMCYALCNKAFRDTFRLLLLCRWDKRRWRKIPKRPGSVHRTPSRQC
Briefly: Functional mobilization of intracellular calcium (FLIPR), M1-CHO cells. The note with it: for Emax: 100% efficacy = maximum response obtained with the Carbachol control; for M1 Activity: M1-CHO cells, calcium mobilization (FLIPR). As to the method: as §1, §2, §3, §4, §5, §6

The target in another test is T3, M2 muscarinic receptor (Homo sapiens, UniProt P08172).
T3 construct: expressed in transfected cells; host or cells: CHO (M2-CHO)
T3 sequence (P08172 1-466): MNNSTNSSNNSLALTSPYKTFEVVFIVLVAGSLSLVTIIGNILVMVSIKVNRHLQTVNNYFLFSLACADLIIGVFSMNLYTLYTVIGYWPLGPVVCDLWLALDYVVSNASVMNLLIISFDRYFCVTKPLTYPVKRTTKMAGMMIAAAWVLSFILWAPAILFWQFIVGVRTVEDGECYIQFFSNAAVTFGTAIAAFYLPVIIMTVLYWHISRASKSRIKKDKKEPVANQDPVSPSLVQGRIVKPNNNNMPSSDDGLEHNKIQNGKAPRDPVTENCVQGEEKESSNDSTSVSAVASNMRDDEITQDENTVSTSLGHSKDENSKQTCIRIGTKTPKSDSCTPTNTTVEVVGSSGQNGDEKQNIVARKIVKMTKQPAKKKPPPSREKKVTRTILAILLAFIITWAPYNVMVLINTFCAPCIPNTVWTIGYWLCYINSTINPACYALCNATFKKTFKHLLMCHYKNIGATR
Briefly: Functional mobilization of intracellular calcium (FLIPR), M2-CHO cells. The note with it: for Emax: 100% efficacy = maximum response obtained with the Carbachol control; for M2 Activity: M2-CHO cells, calcium mobilization (FLIPR). The procedure:
as §1, §2, §3, §4, §5, §6

The term Emax denotes the size of the effect at its maximum, as opposed to the concentration needed. With `COc1ccccc1C1(C#N)CCN(C[C@H]2C[C@H]3CC[C@H]2C3)CC1` [Compound 172], on M4 muscarinic receptor, the Emax was 25 to 100% and the “M4 Activity” value is on record as “+++ (activity was measured to be less than 1.0 μM)”. In addition, at M1 muscarinic receptor, the Emax lay within 25 to 100% and the “M1 Activity” value is “+++ (activity was measured to be less than 1.0 μM)”. Further, on M2 muscarinic receptor, the Emax is 25 to 100% and the “M2 Activity” value is on record as “+++ (activity was measured to be less than 1.0 μM)”.
For `COc1ccc(Cl)cc1C1(OC)CCN(C2CCOCC2)CC1` [Compound 201], on M4 muscarinic receptor, the maximum response (Emax) was less than 25% and the “M4 Activity” value is recorded as “+ (activity was measured to be greater than 5.0 μM)”. At M1 muscarinic receptor, the maximum response (Emax) was less than 25% and the “M1 Activity” value is listed as “+ (activity was measured to be greater than 5.0 μM)”. Moreover, on M2 muscarinic receptor, the Emax was less than 25% and the “M2 Activity” value was “+ (activity was measured to be greater than 5.0 μM)”.
As to `COc1ccc(Cl)cc1C1(OC)CCN(C2CCCCC2)CC1` [Compound 203], on M4 muscarinic receptor, the maximal effect (Emax) lay within 25 to 100% and the “M4 Activity” value is given as “++ (activity was measured to be from 1.0 μM to 5.0 μM)”. On M1 muscarinic receptor, the Emax lay in the range of 25 to 100% and the “M1 Activity” value is listed as “+ (activity was measured to be greater than 5.0 μM)”. For the same molecule, on M2 muscarinic receptor, the maximum response (Emax) was less than 25% and the “M2 Activity” value is on record as “+ (activity was measured to be greater than 5.0 μM)”.
In the case of `COc1ccccc1C1CCN(CC2CC3CCC2O3)CC1` (stereo not drawn) [Compound 218], on M4 muscarinic receptor, the Emax was 25 to 100% and the “M4 Activity” value is “++ (activity was measured to be from 1.0 μM to 5.0 μM)”. On M1 muscarinic receptor, the Emax is less than 25% and the “M1 Activity” value is “+ (activity was measured to be greater than 5.0 μM)”. In addition, at M2 muscarinic receptor, the Emax is less than 25% and the “M2 Activity” value is listed as “+ (activity was measured to be greater than 5.0 μM)”.
In the case of `COc1ccc(Cl)cc1C1(O)CCN(C2CCC3CCC2C3)CC1` (stereo not drawn) [Compound 228], at M4 muscarinic receptor, the maximum response (Emax) was 25 to 100% and the “M4 Activity” value is reported as “++ (activity was measured to be from 1.0 μM to 5.0 μM)”. At M1 muscarinic receptor, the Emax is less than 25% and the “M1 Activity” value is given as “+ (activity was measured to be greater than 5.0 μM)”. At M2 muscarinic receptor, the Emax was less than 25% and the “M2 Activity” value is “+ (activity was measured to be greater than 5.0 μM)”.
For the molecule `COc1ccccc1C1(C#N)CCN(C2CCC3CCC2C3)CC1` (stereo not drawn) [Compound 240], on M4 muscarinic receptor, the Emax is 25 to 100% and the “M4 Activity” value is reported as “+++ (activity was measured to be less than 1.0 μM)”. Also, on M1 muscarinic receptor, the Emax was in the range of 25 to 100% and the “M1 Activity” value is “++ (activity was measured to be from 1.0 μM to 5.0 μM)”. Further, on M2 muscarinic receptor, the maximum response (Emax) fell in the range of 25 to 100% and the “M2 Activity” value is “++ (activity was measured to be from 1.0 μM to 5.0 μM)”.
On to `COc1ccc(C2CCN(C3C[C@H]4CC[C@H](C3)C4)CC2)c(C)c1` (stereo partly drawn) [Compound 244], for which, on M4 muscarinic receptor, the Emax is less than 25% and the “M4 Activity” value is reported as “+ (activity was measured to be greater than 5.0 μM)”. On M1 muscarinic receptor, the maximal response (Emax) is less than 25% and the “M1 Activity” value is “+ (activity was measured to be greater than 5.0 μM)”. Moreover, at M2 muscarinic receptor, the Emax was less than 25% and the “M2 Activity” value is listed as “+ (activity was measured to be greater than 5.0 μM)”.
`CCOC(=O)N1CCC(N2CCC(C#N)(c3ccccc3OC)CC2)CC1` [Compound 245, ethyl 4-cyano-4-(2-methoxyphenyl)-1,4′-bipiperidine-1′-carboxylate]: on M4 muscarinic receptor, the Emax was in the range of 25 to 100% and the “M4 Activity” value is listed as “+++ (activity was measured to be less than 1.0 μM)”. On M1 muscarinic receptor, the Emax was 25 to 100% and the “M1 Activity” value is “+++ (activity was measured to be less than 1.0 μM)”. Further, on M2 muscarinic receptor, the Emax is less than 25% and the “M2 Activity” value is reported as “+ (activity was measured to be greater than 5.0 μM)”.
For `COc1ccccc1C1(C#N)CCN(C2CCCCCC2)CC1` [Compound 279], at M4 muscarinic receptor, the maximum response (Emax) lay in the range of 25 to 100% and the “M4 Activity” value is reported as “++ (activity was measured to be from 1.0 μM to 5.0 μM)”. In addition, at M1 muscarinic receptor, the Emax was less than 25% and the “M1 Activity” value is on record as “++ (activity was measured to be from 1.0 μM to 5.0 μM)”. Also, on M2 muscarinic receptor, the Emax is less than 25% and the “M2 Activity” value is given as “+ (activity was measured to be greater than 5.0 μM)”.
Regarding `COc1ccc(Cl)cc1C1(OC)CCN(C[C@@H]2C[C@H]3C=C[C@H]2C3)CC1` [Compound 286], at M4 muscarinic receptor, the Emax lay in the range of 25 to 100% and the “M4 Activity” value was “+++ (activity was measured to be less than 1.0 μM)”. Moreover, on M1 muscarinic receptor, the maximum response (Emax) lay in the range of 25 to 100% and the “M1 Activity” value was “+ (activity was measured to be greater than 5.0 μM)”. In addition, at M2 muscarinic receptor, the Emax was less than 25% and the “M2 Activity” value is on record as “+ (activity was measured to be greater than 5.0 μM)”.
